Data reported in PubChem BioAssay AID1259407 (Chemical Carcinogenesis Research Information System (CCRIS), 2018).
Calls of active or inactive are those of the source. The rule behind the calls is not given here.

System: CCRIS mutagenicity, Ames/micronucleus/aberration tests
Test: CCRIS mutagenicity studies
[1] = Test System: AMES SALMONELLA TYPHIMURIUM, Strain/Indicator: TA98, Metabolic Activation: NONE, Method: PREINCUBATION
[2] = Test System: AMES SALMONELLA TYPHIMURIUM, Strain/Indicator: TA100, Metabolic Activation: NONE, Method: PREINCUBATION

Measured: mutagenic call

Nc1nc(-c2ccc([N+](=O)[O-])cc2)nc2c1ncn2-c1ccc([N+](=O)[O-])cc1
inactive: Test System: AMES SALMONELLA TYPHIMURIUM, Strain/Indicator: TA100(1,8-DNP), Metabolic Activation: RAT, LIVER, S-9, PCB, Method: PREINCUBATION inactive; negative | Test System: AMES SALMONELLA TYPHIMURIUM, Strain/Indicator: TA100(NR), Metabolic Activation: RAT, LIVER, S-9, PCB, Method: PREINCUBATION inactive; negative
active: Test System: AMES SALMONELLA TYPHIMURIUM, Strain/Indicator: TA98(1,8-DNP), Metabolic Activation: NONE, Method: PREINCUBATION active; positive | Test System: AMES SALMONELLA TYPHIMURIUM, Strain/Indicator: TA98(1,8-DNP), Metabolic Activation: RAT, LIVER, S-9, PCB, Method: PREINCUBATION active; positive | Test System: AMES SALMONELLA TYPHIMURIUM, Strain/Indicator: TA98(NR), Metabolic Activation: NONE, Method: PREINCUBATION active; positive | Test System: AMES SALMONELLA TYPHIMURIUM, Strain/Indicator: TA98(NR), Metabolic Activation: RAT, LIVER, S-9, PCB, Method: PREINCUBATION active; positive | [1] active; positive | Test System: AMES SALMONELLA TYPHIMURIUM, Strain/Indicator: TA98, Metabolic Activation: RAT, LIVER, S-9, PCB, Method: PREINCUBATION active; positive | Test System: AMES SALMONELLA TYPHIMURIUM, Strain/Indicator: TA100(1,8-DNP), Metabolic Activation: NONE, Method: PREINCUBATION active; positive | Test System: AMES SALMONELLA TYPHIMURIUM, Strain/Indicator: TA100(NR), Metabolic Activation: NONE, Method: PREINCUBATION active; positive | [2] active; positive | Test System: AMES SALMONELLA TYPHIMURIUM, Strain/Indicator: TA100, Metabolic Activation: RAT, LIVER, S-9, PCB, Method: PREINCUBATION active; positive | Test System: AMES SALMONELLA TYPHIMURIUM, Strain/Indicator: YG1020, Metabolic Activation: NONE, Method: PREINCUBATION active; positive | Test System: AMES SALMONELLA TYPHIMURIUM, Strain/Indicator: YG1020, Metabolic Activation: RAT, LIVER, S-9, PCB, Method: PREINCUBATION active; positive | Test System: AMES SALMONELLA TYPHIMURIUM, Strain/Indicator: YG1021, Metabolic Activation: NONE, Method: PREINCUBATION active; positive | Test System: AMES SALMONELLA TYPHIMURIUM, Strain/Indicator: YG1021, Metabolic Activation: RAT, LIVER, S-9, PCB, Method: PREINCUBATION active; positive | Test System: AMES SALMONELLA TYPHIMURIUM, Strain/Indicator: YG1024, Metabolic Activation: NONE, Method: PREINCUBATION active; positive | Test System: AMES SALMONELLA TYPHIMURIUM, Strain/Indicator: YG1024, Metabolic Activation: RAT, LIVER, S-9, PCB, Method: PREINCUBATION active; positive | Test System: AMES SALMONELLA TYPHIMURIUM, Strain/Indicator: YG1025, Metabolic Activation: NONE, Method: PREINCUBATION active; positive | Test System: AMES SALMONELLA TYPHIMURIUM, Strain/Indicator: YG1025, Metabolic Activation: RAT, LIVER, S-9, PCB, Method: PREINCUBATION active; positive | Test System: AMES SALMONELLA TYPHIMURIUM, Strain/Indicator: YG1026, Metabolic Activation: NONE, Method: PREINCUBATION active; positive | Test System: AMES SALMONELLA TYPHIMURIUM, Strain/Indicator: YG1026, Metabolic Activation: RAT, LIVER, S-9, PCB, Method: PREINCUBATION active; positive | Test System: AMES SALMONELLA TYPHIMURIUM, Strain/Indicator: YG1029, Metabolic Activation: NONE, Method: PREINCUBATION active; positive | Test System: AMES SALMONELLA TYPHIMURIUM, Strain/Indicator: YG1029, Metabolic Activation: RAT, LIVER, S-9, PCB, Method: PREINCUBATION active; positive

C=C(C)[C@H]1CC=C(C)CC1
active: Test System: MOUSE LYMPHOMA, Strain/Indicator: L5178Y (TK+/TK-), Metabolic Activation: RAT, LIVER, S-9, AROCLOR 1254, Method: SUSPENSION/PLATE active; positive
inactive: End Point: IN VITRO CHROMOSOMAL ABERRATIONS, Test System: CHO CELLS, Metabolic Activation: NONE inactive; negative | End Point: IN VITRO CHROMOSOMAL ABERRATIONS, Test System: CHO CELLS, Metabolic Activation: RAT, LIVER, S-9, AROCLOR 1254 inactive; negative | Test System: AMES SALMONELLA TYPHIMURIUM, Strain/Indicator: TA98, Metabolic Activation: HAMSTER, LIVER, S-9, AROCLOR 1254, Method: PREINCUBATION inactive; negative | [1] inactive; negative | Test System: AMES SALMONELLA TYPHIMURIUM, Strain/Indicator: TA98, Metabolic Activation: NONE, Method: STANDARD PLATE inactive; negative | Test System: AMES SALMONELLA TYPHIMURIUM, Strain/Indicator: TA98, Metabolic Activation: RAT, LIVER, S-9, AROCLOR 1254, Method: PREINCUBATION inactive; negative | Test System: AMES SALMONELLA TYPHIMURIUM, Strain/Indicator: TA98, Metabolic Activation: RAT, LIVER, S-9, AROCLOR, Method: STANDARD PLATE inactive; negative | Test System: AMES SALMONELLA TYPHIMURIUM, Strain/Indicator: TA100, Metabolic Activation: HAMSTER, LIVER, S-9, AROCLOR 1254, Method: PREINCUBATION inactive; negative | [2] inactive; negative | Test System: AMES SALMONELLA TYPHIMURIUM, Strain/Indicator: TA100, Metabolic Activation: NONE, Method: STANDARD PLATE inactive; negative | Test System: AMES SALMONELLA TYPHIMURIUM, Strain/Indicator: TA100, Metabolic Activation: RAT, LIVER, S-9, AROCLOR 1254, Method: PREINCUBATION inactive; negative | Test System: AMES SALMONELLA TYPHIMURIUM, Strain/Indicator: TA100, Metabolic Activation: RAT, LIVER, S-9, AROCLOR, Method: STANDARD PLATE inactive; negative | Test System: AMES SALMONELLA TYPHIMURIUM, Strain/Indicator: TA1535, Metabolic Activation: HAMSTER, LIVER, S-9, AROCLOR 1254, Method: PREINCUBATION inactive; negative | Test System: AMES SALMONELLA TYPHIMURIUM, Strain/Indicator: TA1535, Metabolic Activation: NONE, Method: PREINCUBATION inactive; negative | Test System: AMES SALMONELLA TYPHIMURIUM, Strain/Indicator: TA1535, Metabolic Activation: RAT, LIVER, S-9, AROCLOR 1254, Method: PREINCUBATION inactive; negative | Test System: AMES SALMONELLA TYPHIMURIUM, Strain/Indicator: TA1537, Metabolic Activation: HAMSTER, LIVER, S-9, AROCLOR 1254, Method: PREINCUBATION inactive; negative | Test System: AMES SALMONELLA TYPHIMURIUM, Strain/Indicator: TA1537, Metabolic Activation: NONE, Method: PREINCUBATION inactive; negative | Test System: AMES SALMONELLA TYPHIMURIUM, Strain/Indicator: TA1537, Metabolic Activation: RAT, LIVER, S-9, AROCLOR 1254, Method: PREINCUBATION inactive; negative | Test System: AMES SALMONELLA TYPHIMURIUM, Strain/Indicator: UTH8413, Metabolic Activation: NONE, Method: STANDARD PLATE inactive; negative | Test System: AMES SALMONELLA TYPHIMURIUM, Strain/Indicator: UTH8413, Metabolic Activation: RAT, LIVER, S-9, AROCLOR, Method: STANDARD PLATE inactive; negative | Test System: AMES SALMONELLA TYPHIMURIUM, Strain/Indicator: UTH8414, Metabolic Activation: NONE, Method: STANDARD PLATE inactive; negative | Test System: AMES SALMONELLA TYPHIMURIUM, Strain/Indicator: UTH8414, Metabolic Activation: RAT, LIVER, S-9, AROCLOR, Method: STANDARD PLATE inactive; negative | Test System: MOUSE LYMPHOMA, Strain/Indicator: L5178Y (TK+/TK-), Metabolic Activation: NONE, Method: SUSPENSION/PLATE inactive; negative

OC1c2ccccc2Oc2ccccc21
inactive: [2] inactive; negative | Test System: AMES SALMONELLA TYPHIMURIUM, Strain/Indicator: TA100, Metabolic Activation: RAT, LIVER, S-9, PHENOBARBITAL AND 5,6-BENZOFLAVONE, Method: PREINCUBATION inactive; negative | Test System: AMES SALMONELLA TYPHIMURIUM, Strain/Indicator: TA2637, Metabolic Activation: RAT, LIVER, S-9, PHENOBARBITAL AND 5,6-BENZOFLAVONE, Method: PREINCUBATION inactive; negative
active: Test System: AMES SALMONELLA TYPHIMURIUM, Strain/Indicator: TA97, Metabolic Activation: NONE, Method: PREINCUBATION active; positive | Test System: AMES SALMONELLA TYPHIMURIUM, Strain/Indicator: TA97, Metabolic Activation: RAT, LIVER, S-9, PHENOBARBITAL AND 5,6-BENZOFLAVONE, Method: PREINCUBATION active; positive | [1] active; positive | Test System: AMES SALMONELLA TYPHIMURIUM, Strain/Indicator: TA98, Metabolic Activation: RAT, LIVER, S-9, PHENOBARBITAL AND 5,6-BENZOFLAVONE, Method: PREINCUBATION active; positive | Test System: AMES SALMONELLA TYPHIMURIUM, Strain/Indicator: TA2637, Metabolic Activation: NONE, Method: PREINCUBATION active; positive
